Measured values published in patent US4289645A (priority 1980, dated 1981).
“And” between values parts separate entries of the source, which are not always exact repeats. Identical values can stand only once. Like-named read-outs stand apart in the source and are kept apart here.

Experiments:
[1] = high pressures; cited from earlier work
[2] = Oxygen scavenging of hydroquinone/mu-amine, ambient temperature (Example 7); details: Table 8; 60 seconds, 23-25 °C, 103 ppm hydroquinone + 103 ppm mu-amine
Method: The flask was filled with deionized water which had been stripped of some dissolved oxygen by bubbling nitrogen through a diffuser stone. The pH was adjusted to the desired level with sodium hydroxide. The flask was sealed with a rubber septum, the dissolved oxygen probe and the pH electrode. A magnetic stirrer bar was left in the flask for mixing. The mixer was turned on, and dissolved oxygen and temperature readings were recorded until the dissolved oxygen reached a constant value. Next, the appropriate quantity of additive was injected through the septum using a hypodermic syringe. The initial mole ratio of treatment to dissolved oxygen was determined by weighing feed chemical and measuring the oxygen concentration. […] Dissolved oxygen and temperature readings were then taken at appropriate time intervals.
Using the same apparatus and procedure as described in Example 4 above, oxygen scavenging experiments were performed by injecting 1 ml of stock solution into a glass vessel containing 1070 ml of air-saturated, demineralized water adjusted to the appropriate pH with 7 N sodium hydroxide. The results of these tests are given in Table 8 below in terms of % oxygen removal at 60 seconds. […] The final pH values indicated are for the test water.

[3] = Test for identification of mu-amines compatible with hydroquinone (Example 6); type: physicochemical; design: key: An asterisk (*) in a column indicates a positive result; details: for Step 4: Possible mu-Amine / Step 4: Not mu-Amine: 10 g amine, 10 g hydroquinone, 80 g water; for Step 4: Possible mu-Amine: no precipitate after 3 min stirring; for Step 6: Possible mu-Amine: passes unhindered through 5 micron filter; for Step 4: Not mu-Amine: precipitation after 3 min stirring
Excerpt: The steps of this test are as follows:
Step 1: To a 1 pint glass jar which can be equipped with a cover lid add 80.0 grams of demineralized water and 10.0 grams of the amine to be tested.
Step 2: Stir the contents of the jar for one minute, preferably via a magnetic stirrer. If the amine is a solid, stir until complete dissolution into the water is attained.
Step 4: Stir the contents of the jar for three minutes. If precipitation within the jar occurs, then the amine is not a mu-amine. If no precipitate formation within the jar is evident, the amine may possibly be a mu-amine, so proceed to Step 5.
Step 5: Seal the jar and stir vigorously for seven minutes.
Step 6: After stirring, filter the contents of the jar through a 5 micron filter paper via suction. […] If the contents of the jar pass unhindered through the filter paper, the amine may possibly be a mu-amine and Steps 7 and 8 should be performed.
Step 7: Remove a 1.0 ml aliquot from the filtration flask or receiver (i.e., an aliquot of the former jar contents) with a syringe.
Step 8: Inject the contents of the syringe into the room temperature oxygen scavenger apparatus described in Example 4 above which contains air-saturated, demineralized water and sufficient sodium hydroxide to result in a pH 9-10 range in the reaction flask. If at least 70% of the dissolved oxygen initially present in the air-saturated water is removed within one minute after injection, the amine is definitely a mu-amine. If at least 70% of the dissolved oxygen is not removed within one minute, then the amine is not a mu-amine.
Reported below in Table 7 are the results of tests using the above described procedure for various amines. An asterisk (*) in a column indicates a positive result.

[4] = cited from earlier work; for % O2 Removed: Table 1, 78±3 °C, 4±1 psig, about 4 min, feedwater 58-100 ppm, initial O2 1.8-2.3 ppm; for oxygen scavenging in the test water: conclusion from Table 1
[5] = for mu-amine required to effect dissolution: added to saturated aqueous hydroquinone (10.0 g hydroquinone, 89.5 g water)
Method: Volumes of mu-amines required to effect dissolution were recorded and converted to weights via density.

[6] = Oxygen scavenging at various concentrations and weight ratios of hydroquinone and mu-amine (Example 9)
Method: Using the same apparatus and procedure as described in Example 4 above, oxygen scavenging experiments were performed by injecting 1 ml of stock solution into a glass vessel containing 1070 ml of air-saturated, demineralized water adjusted to the appropriate pH with 7 N sodium hydroxide. […] The final pH values indicated are for the test water.
(§1) The stock solution concentrations are presented in terms of weight % aqueous. The stock solutions were each 100 grams total. […] The tests were conducted at ambient temperature (23°-25° C.).

[7] = Oxygen scavenging of hydroquinone/mu-amine in hot water flow system (Example 8); details: Table 10; 6.7 ppm hydroquinone + 6.7 ppm mu-amine, 78±1 °C, 3-5 psig, 240±10 s, pH 9.7
Excerpt: The specific experimental conditions were:
Reaction Time=240±10 seconds
The initial oxygen levels are reported as parts per billion (ppb).

[8] = Thermal stability of amines (description); type: physicochemical; details: of the amines tested
[9] = Dissolution and storage stability of hydroquinone/methoxypropylamine solutions (Example 11); type: physicochemical
Method: The following 25 gram solutions were prepared and sealed in glass bottles (components listed in order of addition):
Fifty (50) grams of each of the following solutions were prepared in glass bottles, sealed and placed on a shaker for two hours: […]

[10] = Compatibility of amines with hydroquinone in solution (description); type: physicochemical
Excerpt: To provide convenient single-drum treatments, it was decided to test-formulate various dioxo aromatic compounds with neutralizing amines.

[11] = cited from earlier work; for % O2 Removed, 1 Minute: hydroquinone: pH 8.6, 22.5 °C, 0.94 mole/mole O2
[12] = cited from earlier work
[13] = cited from earlier work; remark: listed apart in the source
[14] = hydroquinone alone in water; cited from earlier work
rats = details: conclusion from Table 4; cited from earlier work
[15] = conclusion from Table 6; cited from earlier work
[16] = for % O2 Removed: 60 s
Method: as §1
The tests were conducted at ambient temperature (23°-25° C.).

[17] = 1.5% mu-amine, 10.0% hydroquinone (6.67:1)
[18] = 90.0% mu-amine, 10.0% hydroquinone (1:9)
[19] = hydrazine: pH 9.2, 26.5 °C, 10.5 mole/mole O2

## O=S([O-])[O-].[Na+].[Na+] [sodium sulfite]
[1]
  decomposition in the boiler: decomposes in the boiler to form sulfur dioxide and hydrogen sulfide

## NCCN [Ethylenediamine]
[2]
  % O2 Removed: 85%
[3]
  Step 4: Possible mu-Amine: *
  Step 6: Possible mu-Amine: *

## Nc1ccccc1N [o-phenylenediamine]
[4]
  % O2 Removed: 10%
  oxygen scavenging in the test water: ineffective

## CC(O)CNCC(C)O (stereo not drawn) [Diisopropanolamine]
[2]
  % O2 Removed: 86%
[3]
  Step 4: Possible mu-Amine: *
  Step 6: Possible mu-Amine: *

## CN(C)CCCN [Dimethylaminopropylamine]
[5]
  mu-amine required to effect dissolution: 1.7 grams
[6]; [17]
  % O2 Removed At 60 Seconds: 94%
[6]; 30.0% mu-amine, 10.0% hydroquinone (1:3)
  % O2 Removed At 60 Seconds: 99%
[6]; [18]
  % O2 Removed At 60 Seconds: 98%
[2]
  % O2 Removed: 76%
[3]
  Step 4: Possible mu-Amine: *
  Step 6: Possible mu-Amine: *

## CC(O)CN (stereo not drawn) [Monoisopropanolamine]
[7]
  % O2 Removed: 98%
[3]
  Step 4: Possible mu-Amine: *
  Step 6: Possible mu-Amine: *

## COCCCN [Methoxypropylamine]
[8]
  thermal stability: most thermally stable
[5]
  mu-amine required to effect dissolution: 1.7 grams
[6]; [17]
  % O2 Removed At 60 Seconds: 96%
[6]; 2.0% mu-amine, 10.0% hydroquinone (5:1)
  % O2 Removed At 60 Seconds: 96%
[6]; 3.0% mu-amine, 10.0% hydroquinone (3.33:1)
  % O2 Removed At 60 Seconds: 96%
[6]; 15.0% mu-amine, 15.0% hydroquinone (1:1)
  % O2 Removed At 60 Seconds: 95%
[6]; 20.0% mu-amine, 20.0% hydroquinone (1:1)
  % O2 Removed At 60 Seconds: 98%
[6]; 30.0% mu-amine, 30.0% hydroquinone (1:1)
  % O2 Removed At 60 Seconds: 98%
[6]; 40.0% mu-amine, 40.0% hydroquinone (1:1)
  % O2 Removed At 60 Seconds: 94%
[6]; [18]
  % O2 Removed At 60 Seconds: 94%
[9]; aqueous 10% hydroquinone
  lowest practical MOPA concentration in the mixture: 2%
[7]
  % O2 Removed: 99%
[3]
  Step 4: Possible mu-Amine: *
  Step 6: Possible mu-Amine: *

## NCCO [Monoethanolamine]
[2]
  % O2 Removed: 75%
[3]
  Step 4: Possible mu-Amine: *
  Step 6: Possible mu-Amine: *

## Dimethyl(iso)propanolamine
[2]
  % O2 Removed: 73%
[3]
  Step 4: Possible mu-Amine: *
  Step 6: Possible mu-Amine: *

## NC1CCCCC1 [Cyclohexylamine, reference compound]
[10]
  compatibility with hydroquinone in solution: precipitated out of solution
[3]
  Step 4: Not mu-Amine: *

## C1COCCN1 [Morpholine, reference compound]
[10]
  compatibility with hydroquinone in solution: precipitated out of solution
[3]
  Step 4: Not mu-Amine: *

## CC(C)(C)N [tert-Butylamine, reference compound]
[10]
  compatibility with hydroquinone in solution: insoluble mass
[3]
  Step 4: Not mu-Amine: *

## NCCNCCNCCN [Triethylenetetramine]
[2]
  % O2 Removed: 89%
[3]
  Step 4: Possible mu-Amine: *
  Step 6: Possible mu-Amine: *

## CCC(C)N (stereo not drawn) [sec-Butylamine]
[10]
  compatibility with hydroquinone in solution: compatible with hydroquinone in solution
[2]
  % O2 Removed: 74%
[3]
  Step 4: Possible mu-Amine: *
  Step 6: Possible mu-Amine: *

## C1CN2CCN1CC2 [Triethylenediamine, reference compound]
[3]
  Step 4: Not mu-Amine: *

## NN [hydrazine]
[11]; [19]
  % O2 Removed, 5 Minutes: 2%
  % O2 Removed, 1 Minute: 1%
[12]; in solution, Cohn and Powell 1954
  pH of maximum oxygen scavenging efficacy: 10.0-10.5
[12]; low temperatures such as room temperature
  rate of reaction with oxygen: very slow
[13]; control run 1: 1.6 ppm, pH 8.8, steam load 11, initial O2 13.0 ppb
  % O2 Removed: 69%
[13]; control run 2: 1.1 ppm, pH 9.4, steam load 15, initial O2 4.0 ppb
  % O2 Removed: 50%
[13]; control run 3: 1.2 ppm, pH 8.6, steam load 15, initial O2 6.0 ppb
  % O2 Removed: 60%
[13]; control run 4: 1.0 ppm, pH 8.8, steam load 15, initial O2 5.8 ppb
  % O2 Removed: 55%
[13]; control run 5: 0.8 ppm, pH 9.4, steam load 11, initial O2 3.5 ppb
  % O2 Removed: 31%
[13]; control run 6: 1.6 ppm, pH 9.6, steam load 14, initial O2 4.0 ppb
  % O2 Removed: 30%

## NCCCCCCN [Hexamethylenediamine, reference compound]
[3]
  Step 4: Not mu-Amine: *

## Nc1ccc(N)cc1 [p-phenylenediamine]
[4]
  % O2 Removed: 35%
  oxygen scavenging in the test water: ineffective

## Oc1ccc(O)cc1 [hydroquinone]
[14]
  aqueous hydroquinone solubility: about 7%
[5]; 6.3 g hydroquinone in 89.5 g demineralized water, solutions #1, #2, #3
  Dissolution time: 23 min and 19 min and 21 min
[5]; 10.0 g hydroquinone in neat MOPA
  MOPA required to dissolve hydroquinone: 12.5 grams
[11]; conclusion from Table 5
  reactivity at low temperature with oxygen versus hydrazine: superiority of hydroquinone, as compared to hydrazine
[11]; [19]
  % O2 Removed, 1 Minute: 29%
[13]; 1.9 ppm actives, pH 8.4, steam load 15, initial O2 8.0 ppb
  % O2 Removed: 88%
[13]; 1.9 ppm actives, pH 8.4, steam load 15, initial O2 10.0 ppb
  % O2 Removed: 90%
[13]; conclusion from Tables 2 and 3
  efficacy in treating boiler feedwater: efficacious in treating boiler feedwater and compared favorably with hydrazine
rats
  toxicity versus hydrazine: significantly less toxic as compared to hydrazine
[15]
  thermal stability versus hydrazine: superior thermal stability
[16]; 0 methoxypropylamine, 1.0% hydroquinone
  % O2 Removed: 9%
[16]; 0 methoxypropylamine, 3.0% hydroquinone
  % O2 Removed: 17%
[16]; 0 methoxypropylamine, 6.0% hydroquinone
  % O2 Removed: 27%
[16]; 1.0% methoxypropylamine, 1.0% hydroquinone
  % O2 Removed: 10%
[16]; 1.0% methoxypropylamine, 6.0% hydroquinone
  % O2 Removed: 78%
[16]; 3.0% methoxypropylamine, 3.0% hydroquinone
  % O2 Removed: 74%
[16]; 6.0% methoxypropylamine, 1.0% hydroquinone
  % O2 Removed: 17%
[16]; 6.0% methoxypropylamine, 6.0% hydroquinone
  % O2 Removed: 93%
[16]; conclusion from Table 12
  effect of mu-amine addition on oxygen scavenging efficacy: increases the oxygen scavenging efficacy
[9]; 1 to 1 with methoxypropylamine, sealed storage 12 days
  active hydroquinone concentration attainable in stable aqueous solution: up to 40%
[4]
  % O2 Removed: 97%
  oxygen scavenging in the test water: at least equivalent to, if not better than, hydrazine

## Oc1cccc(O)c1 [resorcinol]
[4]
  % O2 Removed: 0%
  oxygen scavenging in the test water: ineffective
